Source: ChEMBL document CHEMBL1136513, “Evaluation of vinylsulfamides as sulfhydryl selective alkylation reagents in protein modification” (Bioorg Med Chem Lett, 2003)

Experiments:
[1] = Half-life period at pH 9.2 in the presence of five times more cysteine; ND1 indicates reaction rate was too quick to determine; assay type: ADME
[2] = Half-life period at pH 8.1 in the presence of five times more cysteine; assay type: ADME
[3] = Half-life period at pH 8.1 in the presence of five times more lysine; assay type: ADME
[4] = Half-life period at pH 7.2 in the presence of five times more lysine; ND2 indicates reaction rate was too slow to measure
[5] = Half-life period at pH 9.2 in the presence of five times more lysine; assay type: ADME
[6] = Half-life period at pH 7.2 in the presence of five times more cysteine; assay type: ADME

- T1/2 [1]: Reaction rate too quick
- half-life [2]: 0.45 h
- half-life [3]: 178 h
- T1/2 [4]: Reaction rate too slow
- half-life [5]: 29.6 h
- half-life [6]: 1.28 h
SMILES: C=CS(=O)(=O)NCc1ccc([N+](=O)[O-])cc1
